Measurements as given in ChEMBL document CHEMBL5346923, “Novel pyridinium cationic pleuromutilin analogues overcoming bacterial multidrug resistance” (Eur J Med Chem, 2023).
Activity calls are given as the source filed them. The rule behind the calls is not given here.

Experiments:
Enterococcus = experiment: Antibacterial activity against vancomycin-resistant Enterococcus ATCC 700221 assessed as inhibition of bacterial growth measured after 24 hrs by MH broth based assay; format: functional
Bacillus subtilis = experiment: Antibacterial activity against Bacillus subtilis ATCC 6633 assessed as inhibition of bacterial growth measured after 24 hrs by MH broth based assay; format: functional
Staphylococcus aureus [1] = experiment: Antibacterial activity against Staphylococcus aureus ATCC 29213 assessed as inhibition of bacterial growth measured after 24 hrs by MH broth based assay; format: functional
Staphylococcus aureus [2] = experiment: Antibacterial activity against methicillin-resistant Staphylococcus aureus ATCC 43300 assessed as inhibition of bacterial growth measured after 24 hrs by MH broth based assay; format: functional
Streptococcus pneumoniae = experiment: Antibacterial activity against Streptococcus pneumoniae ATCC 49619 assessed as inhibition of bacterial growth measured after 24 hrs by MH broth based assay; format: functional
[3] = test system: Staphylococcus epidermidis; experiment: Antibacterial activity against methicillin-resistant Staphylococcus epidermidis ATCC 51625 assessed as inhibition of bacterial growth measured after 24 hrs by MH broth based assay; format: functional
Klebsiella pneumoniae [4] = experiment: Antibacterial activity against Klebsiella pneumonia CMCC (B) 46117 assessed as inhibition of bacterial growth measured after 24 hrs by MH broth based assay; format: functional
Staphylococcus aureus [5] = experiment: Antibacterial activity against clinical isolate Staphylococcus aureus harbouring IsaE gene assessed as inhibition of bacterial growth measured after 24 hrs by MH broth based assay; format: functional
Staphylococcus aureus [6] = experiment: Antibacterial activity against clinical isolate Staphylococcus aureus harbouring erm C gene assessed as inhibition of bacterial growth measured after 24 hrs by MH broth based assay; format: functional
Staphylococcus aureus [7] = experiment: Antibacterial activity against clinical isolate Staphylococcus aureus harbouring cfr and erm C gene assessed as inhibition of bacterial growth measured after 24 hrs by MH broth based assay; format: functional
Staphylococcus aureus [8] = experiment: Antibacterial activity against clinical isolate Staphylococcus aureus harbouring tet38 gene assessed as inhibition of bacterial growth measured after 24 hrs by MH broth based assay; format: functional
Staphylococcus aureus [9] = experiment: Antibacterial activity against clinical isolate Staphylococcus aureus harbouring blaZ gene assessed as inhibition of bacterial growth measured after 24 hrs by MH broth based assay; format: functional
Staphylococcus aureus [10] = experiment: Antibacterial activity against clinical isolate Staphylococcus aureus harbouring ArlS, norA and MgrA gene assessed as inhibition of bacterial growth measured after 24 hrs by MH broth based assay; format: functional
Streptococcus parasuis = experiment: Antibacterial activity against clinical isolate Streptococcus parasuis harbouring InuD gene assessed as inhibition of bacterial growth measured after 24 hrs by MH broth based assay; format: functional
[11] = test system: Streptococcus hyovaginalis; experiment: Antibacterial activity against clinical isolate Streptococcus hyovaginalis harbouring IsaE and optrA gene assessed as inhibition of bacterial growth measured after 24 hrs by MH broth based assay; format: functional
Escherichia coli [12] = experiment: Antibacterial activity against clinical isolate Escherichia coli harbouring NDM-17 gene assessed as inhibition of bacterial growth measured after 24 hrs by MH broth based assay; format: functional
Klebsiella pneumoniae [13] = experiment: Antibacterial activity against clinical isolate Klebsiella pneumoniae harbouring mcr-8 gene assessed as inhibition of bacterial growth measured after 24 hrs by MH broth based assay; format: functional
Klebsiella pneumoniae [14] = experiment: Antibacterial activity against clinical isolate Klebsiella pneumoniae harbouring blaKpc gene assessed as inhibition of bacterial growth measured after 24 hrs by MH broth based assay; format: functional
Escherichia coli [15] = experiment: Antibacterial activity against Escherichia coli MG1655 harbouring acrB gene assessed as inhibition of bacterial growth measured after 24 hrs by MH broth based assay; format: functional
Staphylococcus aureus [16] = experiment: Antibacterial activity against methicillin-resistant Staphylococcus aureus ATCC 43300 assessed as reduction in log10 CFU at 3 times of MIC measured after 8 hrs by time-kill assay; format: functional
Staphylococcus aureus [17] = experiment: Antibacterial activity against clinical isolate multi-drug resistant Staphylococcus aureus sal assessed as reduction in log10 CFU at 1 times of MIC measured after 8 hrs by time-kill assay; format: functional, organism-based
Staphylococcus aureus [18] = experiment: Antibacterial activity against clinical isolate multi-drug resistant Staphylococcus aureus sal assessed as inhibition of bacterial growth; format: functional
Staphylococcus aureus [19] = experiment: Potency index, ratio of tiamulin MIC to compound […] for antibacterial activity against clinical isolate multi-drug resistant Staphylococcus aureus sal; format: functional
Staphylococcus aureus [20] = experiment: Antibacterial activity against methicillin-resistant Staphylococcus aureus assessed as resistance development by measuring fold increase in MIC measured after 24 days; format: functional; details: time 24 day
Staphylococcus aureus [21] = experiment: Antibacterial activity against tiamulin-resistant/methicillin-resistant Staphylococcus aureus assessed as inhibition of bacterial growth; format: functional
Staphylococcus aureus [22] = experiment: Antibacterial activity against methicillin-resistant Staphylococcus aureus […] assessed as post antibacterial effect by measuring time required for increase in log10 CFU/ml of bacteria at 2 times of MIC incubated for 1 hr by MH broth based assay; format: functional
Staphylococcus aureus [23] = experiment: Antibacterial activity against 2 times of MIC treated methicillin-resistant Staphylococcus aureus […] assessed as post-antibiotic sub-MIC effect by measuring time required for increase in log10 CFU/ml of bacteria at 0.25 to 0.5 times of MIC incubated for 1 hr by MH broth based assay; format: functional
Staphylococcus aureus [24] = experiment: Antibacterial activity against 4 times of MIC treated methicillin-resistant Staphylococcus aureus […] assessed as post-antibiotic sub-MIC effect by measuring time required for increase in log10 CFU/ml of bacteria at 0.25 to 0.5 times of MIC incubated for 1 hr by MH broth based assay; format: functional
Staphylococcus aureus [25] = experiment: Antibacterial activity against Staphylococcus aureus ATCC 29213 assessed as induction of bacterial fragmentation at 1 times of MIC by SEM analysis; format: functional, organism-based
Staphylococcus aureus [26] = experiment: Antibacterial activity against Staphylococcus aureus ATCC 29213 assessed as induction of cell membrane perforation at 4 times of MIC by SEM analysis; format: functional, organism-based
Staphylococcus aureus [27] = experiment: Antibacterial activity against Staphylococcus aureus ATCC 29213 assessed as inhibition of bacterial division at 4 times of MIC by SEM analysis; format: functional, organism-based
Staphylococcus aureus [28] = experiment: Antibacterial activity against Staphylococcus aureus ATCC 29213 assessed as inhibition of bacterial GFP expression at 1 to 4 times of MIC incubated for 1 hr by fluorescence microscopic analysis; format: functional, organism-based
Cell membrane = experiment: Disruption of membrane integrity in Staphylococcus aureus ATCC 29213 assessed as induction of cell membrane perforation at 1 to 4 ug/ml incubated for 60 mins by ONPG reagent based analysis; format: subcellular; details: dose 1-4 µg/ml
HepG2 = experiment: Cytotoxicity against human HepG2 cells assessed as reduction in cell viability at 7.5 to 1000 ug/ml incubated for 6 hrs by CCK-8 assay; format: toxicity, cell-based; details: hepg2, 6 h, dose 7.5-1000 µg/ml
[29] = Toxicity in BABL/C mouse assessed as survival rate at 631 mg/kg, po measured upto 14 days; format: organism-based; details: in vivo, time < 14 day
[30] = Toxicity in po dosed BABL/C mouse assessed as lethal dose measured upto 14 days; format: organism-based; details: in vivo, time < 14 day
Staphylococcus aureus [31] = experiment: Antibacterial activity against multi-drug resistant Staphylococcus aureus sa1 infected in BABL/C mouse assessed as survival rate at 10 mg/kg, ip measured upto 7 days; format: functional; details: sa1, 168 h, time <= 7 day
Staphylococcus aureus [32] = experiment: Antibacterial activity against multi-drug resistant Staphylococcus aureus sa1 infected in ip dosed BABL/C mouse assessed as survival rate measured upto 7 days; format: functional; details: sa1, 168 h, time <= 7 day
Staphylococcus aureus [33] = experiment: Antibacterial activity against multi-drug resistant Staphylococcus aureus sa1 infected in BABL/C mouse assessed as reduction in bacterial load in lungs at 40 mg/kg, ip measured after 2 days; format: functional; details: time 2 day

Q: What does the source list for C=C[C@]1(C)C[C@@H](OC(=O)CSc2cc[n+](CCCCCCC)cc2)[C@]2(C)[C@H](C)CC[C@]3(CCC(=O)[C@H]32)[C@@H](C)[C@@H]1O.[I-]?
A: MIC (Enterococcus): 4 µg/mL; MIC (Bacillus subtilis): 4 µg/mL; MIC (Staphylococcus aureus [1]): 0.063 µg/mL; MIC (Staphylococcus aureus [2]): 0.063 µg/mL; MIC (Streptococcus pneumoniae): < 0.031 µg/mL; MIC [3]: 0.063 µg/mL; MIC (Klebsiella pneumoniae [4]): 2 µg/mL; MIC (Staphylococcus aureus [5]): 8 µg/mL; MIC (Staphylococcus aureus [6]): 2 µg/mL; MIC (Staphylococcus aureus [7]): 8 µg/mL; MIC (Staphylococcus aureus [8]): 0.125 µg/mL; MIC (Staphylococcus aureus [9]): 0.063 µg/mL; MIC (Staphylococcus aureus [10]): 0.063 µg/mL; MIC (Streptococcus parasuis): 16 µg/mL; MIC [11]: 32 µg/mL; MIC (Escherichia coli [12]): 16 µg/mL; MIC (Klebsiella pneumoniae [13]): 2 µg/mL; MIC (Klebsiella pneumoniae [14]): 4 µg/mL; MIC (Escherichia coli [15]): 0.5 µg/mL; Activity (Staphylococcus aureus [16]): 2 log10CFU/ml; Activity (Staphylococcus aureus [17]): Active; MIC (Staphylococcus aureus [18]): 8 µg/mL; Ratio (Staphylococcus aureus [19]): 96; fold change (FC) (Staphylococcus aureus [20]): 8; MIC (Staphylococcus aureus [21]): 0.5 µg/mL; Time (Staphylococcus aureus [22]): 2.31 h; Time (Staphylococcus aureus [23]): 2.62 h; Time (Staphylococcus aureus [24]): 2.75 h; Activity (Staphylococcus aureus [25]): Active; Activity (Staphylococcus aureus [26]): Active; Activity (Staphylococcus aureus [27]): Active; Activity (Staphylococcus aureus [28]): Active; Activity (Cell membrane): Active; Activity (HepG2): Non-Toxic; survival at 336 h [29]: 80%; LD50 at 336 h [30]: 879 mg/kg; survival at 10 mg/kg (Staphylococcus aureus [31]): 66%; ED50 (Staphylococcus aureus [32]): 5.68 mg/kg; Activity (Staphylococcus aureus [33]): 4.17 log10CFU/ml
